From patent publication US20250320246A1, “3-AZASTEROID COMPOUNDS FOR THE TREATMENT OF DISEASES RELATED TO MITROCHONDRIAL FUNCTION” (NZP UK LIMITED, priority 2022, published 2025)

Tested on: sporadic PD patient fibroblasts
Assay: Cellular ATP levels in sporadic PD patient fibroblasts, Preliminary ATP assay
Assay type: cell-based, human
Conditions: Homo sapiens, Fibroblast, 24 h, % of vehicle treated sPD fibroblasts, 3 sporadic PD patients; for activity at 0.1 µM: 100 nM, read-out: Average ATP Response 100 nM; for activity at 1 µM: read-out: Average ATP Response 1 μM
Method: In some cases, a preliminary ATP protocol was used in which EC50 was not determined. The preliminary ATP protocol is generally as described in Mortiboys et al 2008. Briefly, fibroblasts were cultured and plated into white, clear-bottom 384 well plates at a concentration of 4000 cells per well in 50 μl of media volume. The plates are left overnight in an incubator to allow the fibroblasts to adhere to the plate surface. The following morning the Glucose based medium is replaced with 25 μl of Galactose based medium. The cells were then dosed with 100 nM and 1 μM concentrations of the compounds using a ECHO 550 liquid handling system. After dosing the wells are topped up with a further 25 μl of Galactose based medium and then left in an incubator for 24 hours. Following this incubation, the medium is removed from the plate and the wells are washed twice with sterile PBS. The wells are filled with 20 μl of Sterile PBS followed by 10 μl of Lysis solution from the ATPlite™ Luminescence ATP detection assay system (Perkin Elmer), including 14 cell free wells to use as blank controls. The plate is then placed on a rotary shaker for 10 mins at 700 rpm. Following the shaking 10 μl of ATP substrate solution (Perkin Elmer) is added to each well and a further 5 min of shaking. The plate is then incubated in the dark for 10 minutes prior to reading. Using a FLUOstar® Omega plate reader, luminescence intensity is recorded. Following the ATP assay the plates are immediately assayed for DNA content in a CyQUANT® assay.
Immediately following The ATP assay DNA content is assessed with the CyQUANT® NF Cell Proliferation Assay Kit (ThermoFisher). CyQUANT® buffer is prepared immediately before the assay and is comprised of 2 μl CyQUANT® dye per ml×1 HBSS solution. 10 μl of CyQUANT® buffer is added to each well. Cell plates were then incubated for 1 hour before being read on a FLUOStar® Plate reader with excitation at 497 nm and emission at 520 nm.
The ATP Quantification for each well is determined as set out above.

SMILES | activity at 0.1 µM [%] | activity at 1 µM [%]
C[C@H](CCC(=O)N[C@@H](CO)C(=O)O)[C@H]1CC[C@H]2[C@@H]3[C@@H](O)C[C@@H]4CNCC[C@]4(C)[C@H]3CC[C@]12C [Compound 57a, N-(3-Aza-7β-hydroxy-5β-cholan-24-oyl)-(S)-2-amino-3-hydroxypropanoic acid] | 109 | 107
C[C@H](NC(=O)CC[C@@H](C)[C@H]1CC[C@H]2[C@@H]3[C@@H](O)C[C@@H]4CNCC[C@]4(C)[C@H]3CC[C@]12C)C(=O)O [Compound 68a, N-(3-Aza-7β-hydroxy-5β-cholan-24-oyl)-(S)-2-aminopropanoic acid] | 109 | 99
C[C@H](CCCC(=O)NCCCC[C@H](N)C(=O)O)[C@H]1CC[C@H]2[C@@H]3[C@@H](O)C[C@@H]4CNCC[C@]4(C)[C@H]3CC[C@]12C [Compound 76b, N-(3-Aza-7β-hydroxy-25-homo-5β-cholan-25-oyl)-(2S)-2,6-diaminohexanoic acid] | 105 | 106
C[C@H](CCC(=O)N1CCOCC1)[C@H]1CC[C@H]2[C@@H]3[C@@H](O)C[C@@H]4CNCC[C@]4(C)[C@H]3CC[C@]12C [Compound 56a, N-(3-Aza-7β-hydroxy-5β-cholan-24-oyl)-morpholine] | 109 | 100
CC(C)OC(=O)c1ccc(NC(=O)CC[C@@H](C)[C@H]2CC[C@H]3[C@@H]4[C@@H](O)C[C@@H]5CNCC[C@]5(C)[C@H]4CC[C@]23C)cc1 [Compound 63a, N-(3-Aza-7β-hydroxy-5β-cholan-24-oyl)-(isopropyl-4-aminobenzoate)] | 106 | 104
C[C@H](CCCC(=O)N[C@@H](Cc1ccccc1)C(=O)O)[C@H]1CC[C@H]2[C@@H]3[C@@H](O)C[C@@H]4CNCC[C@]4(C)[C@H]3CC[C@]12C [Compound 73b, N-(3-Aza-7β-hydroxy-25-homo-5β-cholan-25-oyl)-(S)-2-amino-3-phenylpropanoic acid] | 99.6 | 100
C[C@H](CCCC(=O)NC1CCOC1)[C@H]1CC[C@H]2[C@@H]3[C@@H](O)C[C@@H]4CNCC[C@]4(C)[C@H]3CC[C@]12C (stereo partly drawn) [Compound 82b, N-{(3-aza-7β-hydroxy-25-homo-5β-cholan-25-oyl)}-3-aminotetrahydrofuran] | 96.2 | 97.5
C[C@H](CCC(=O)Nc1ccc(C(=O)O)cc1)[C@H]1CC[C@H]2[C@@H]3[C@@H](O)C[C@@H]4CNCC[C@]4(C)[C@H]3CC[C@]12C [Compound 60a, N-(3-Aza-7β-hydroxy-5β-cholan-24-oyl)-4-aminobenzoic acid] | 102 | 102
C[C@H](CCC(=O)N[C@H](CC(=O)O)c1ccccc1)[C@H]1CC[C@H]2[C@@H]3[C@@H](O)C[C@@H]4CN(C)CC[C@]4(C)[C@H]3CC[C@]12C [Compound 54a, N-(3-Methyl-aza-7β-hydroxy-5β-cholan-24-oyl)-(R)-3-amino-3-phenylpropanoic acid] | 109 | 107
C[C@H](CCC(=O)NCC(=O)O)[C@H]1CC[C@H]2[C@@H]3[C@@H](O)C[C@@H]4CNCC[C@]4(C)[C@H]3CC[C@]12C [Compound 52a, N-(3-Aza-7β-hydroxy-5β-cholan-24-amide)-acetic acid] | 106 | 110
C[C@H](CCC(=O)NCCC(=O)O)[C@H]1CC[C@H]2[C@@H]3[C@@H](O)C[C@@H]4CNCC[C@]4(C)[C@H]3CC[C@]12C [Compound 62a, N-(3-Aza-7β-hydroxy-5β-cholan-24-amide)-propanoic acid] | 108 | 108
C[C@H](CCC(=O)N(C)CC(=O)O)[C@H]1CC[C@H]2[C@@H]3[C@@H](O)C[C@@H]4CNCC[C@]4(C)[C@H]3CC[C@]12C [Compound 67a, N-Methyl-N-(3-aza-7β-hydroxy-5β-cholan-24-oyl)-glycine] | 108 | 107
C[C@H](CCCC(=O)N[C@@H](COC(C)(C)C)C(=O)O)[C@H]1CC[C@H]2[C@@H]3[C@@H](O)C[C@@H]4CNCC[C@]4(C)[C@H]3CC[C@]12C [Compound 71b, N-(3-Aza-7β-hydroxy-25-homo-5β-cholan-25-oyl)-(2S)-2-amino-3-[(2-methylpropan-2-yl)oxy]propanoic acid] | 106 | 104
C[C@H](CCC(=O)N[C@@H](COC(C)(C)C)C(=O)O)[C@H]1CC[C@H]2[C@@H]3[C@@H](O)C[C@@H]4CN(C)CC[C@]4(C)[C@H]3CC[C@]12C [Compound 53a, N-(3-Methyl-aza-7β-hydroxy-5β-cholan-24-oyl)-(2S)-2-amino-3-[(2-methylpropan-2-yl)oxy]propanoic acid] | 109 | 102
C[C@H](CCCC(=O)O)[C@H]1CC[C@H]2[C@@H]3[C@@H](O)C[C@@H]4CN(C(=O)OCc5ccccc5)CC[C@]4(C)[C@H]3CC[C@]12C [Compound 50b, N-(benzyloxycarbonyl)-3-aza-7β-hydroxy-24-homo-5β-cholan-25-oic acid] | 101 | 99.8
C[C@H](CCC(=O)NCC(F)C(=O)O)[C@H]1CC[C@H]2[C@@H]3[C@@H](O)C[C@@H]4CNCC[C@]4(C)[C@H]3CC[C@]12C (stereo partly drawn) [Compound 58a, N-(3-Aza-7β-hydroxy-5β-cholan-24-oyl)-3-amino-2-fluoropropanoic acid] | 102 | 103
C[C@H](CCC(=O)NCCS(=O)(=O)O)[C@H]1CC[C@H]2[C@@H]3[C@@H](O)C[C@@H]4CNCC[C@]4(C)[C@H]3CC[C@]12C [Compound 51a, N-(3-Aza-7β-hydroxy-5β-cholan-24-amide)-ethylsulfonic acid] | 101 | 107
C[C@H](CCC(=O)N(C1CCCCC1)C1CCCCC1)[C@H]1CC[C@H]2[C@@H]3[C@@H](O)C[C@@H]4CN(C)CC[C@]4(C)[C@H]3CC[C@]12C [Compound 59a, N-(Cyclohexyl)-N-(3-methyl-aza-7β-hydroxy-5β-cholan-24-oyl)-cyclohexanamine] | 106 | 99.7
C[C@H](CCC(=O)N1Cc2ccccc2C1)[C@H]1CC[C@H]2[C@@H]3[C@@H](O)C[C@@H]4CNCC[C@]4(C)[C@H]3CC[C@]12C [Compound 81a] | 94.2 | 102
CC[C@H](C)[C@H](NC(=O)CC[C@@H](C)[C@H]1CC[C@H]2[C@@H]3[C@@H](O)C[C@@H]4CNCC[C@]4(C)[C@H]3CC[C@]12C)C(=O)O [Compound 66a, N-(3-Aza-7β-hydroxy-5β-cholan-24-oyl)-(2S,3S)-2-amino-3-methylpentanoic acid] | 109 | 111
CC(C)C[C@H](NC(=O)CCC[C@@H](C)[C@H]1CC[C@H]2[C@@H]3[C@@H](O)C[C@@H]4CNCC[C@]4(C)[C@H]3CC[C@]12C)C(=O)O [Compound 75b, N-(3-Aza-7β-hydroxy-25-homo-5β-cholan-25-oyl)-(S)-2-amino-4-methylpentanoic acid] | 112 | 106
C[C@H](CCCC(=O)N[C@@H](Cc1ccc(O)cc1)C(=O)O)[C@H]1CC[C@H]2[C@@H]3[C@@H](O)C[C@@H]4CNCC[C@]4(C)[C@H]3CC[C@]12C [Compound 77b, N-(3-Aza-7β-hydroxy-25-homo-5β-cholan-25-oyl)-(2S)-2-amino-3-(4-hydroxyphenyl)propanoic acid] | 109 | 113
CC(CC(=O)O)NC(=O)CCC[C@@H](C)[C@H]1CC[C@H]2[C@@H]3[C@@H](O)C[C@@H]4CNCC[C@]4(C)[C@H]3CC[C@]12C (stereo partly drawn) [Compound 74b, N-(3-Aza-7β-hydroxy-25-homo-5β-cholan-25-oyl)-3-aminobutanoic acid] | 103 | 98.5
